Drawing on US10414768B2, “Compounds for treating cystic fibrosis” (CENTRE NATIONAL DE LA RECHERCHE SCIENTIFIQUE (CNRS), priority 2014, dated 2019), this text covers Emax and Iodide efflux for 20 molecules.

A value given as a limit tells only on which side of the number the result lay.

What is called Emax is the maximal effect, on the per cent scale that the assay sets.

T1 sequence (P13569 with tags, fused parts or gaps DEL508-508): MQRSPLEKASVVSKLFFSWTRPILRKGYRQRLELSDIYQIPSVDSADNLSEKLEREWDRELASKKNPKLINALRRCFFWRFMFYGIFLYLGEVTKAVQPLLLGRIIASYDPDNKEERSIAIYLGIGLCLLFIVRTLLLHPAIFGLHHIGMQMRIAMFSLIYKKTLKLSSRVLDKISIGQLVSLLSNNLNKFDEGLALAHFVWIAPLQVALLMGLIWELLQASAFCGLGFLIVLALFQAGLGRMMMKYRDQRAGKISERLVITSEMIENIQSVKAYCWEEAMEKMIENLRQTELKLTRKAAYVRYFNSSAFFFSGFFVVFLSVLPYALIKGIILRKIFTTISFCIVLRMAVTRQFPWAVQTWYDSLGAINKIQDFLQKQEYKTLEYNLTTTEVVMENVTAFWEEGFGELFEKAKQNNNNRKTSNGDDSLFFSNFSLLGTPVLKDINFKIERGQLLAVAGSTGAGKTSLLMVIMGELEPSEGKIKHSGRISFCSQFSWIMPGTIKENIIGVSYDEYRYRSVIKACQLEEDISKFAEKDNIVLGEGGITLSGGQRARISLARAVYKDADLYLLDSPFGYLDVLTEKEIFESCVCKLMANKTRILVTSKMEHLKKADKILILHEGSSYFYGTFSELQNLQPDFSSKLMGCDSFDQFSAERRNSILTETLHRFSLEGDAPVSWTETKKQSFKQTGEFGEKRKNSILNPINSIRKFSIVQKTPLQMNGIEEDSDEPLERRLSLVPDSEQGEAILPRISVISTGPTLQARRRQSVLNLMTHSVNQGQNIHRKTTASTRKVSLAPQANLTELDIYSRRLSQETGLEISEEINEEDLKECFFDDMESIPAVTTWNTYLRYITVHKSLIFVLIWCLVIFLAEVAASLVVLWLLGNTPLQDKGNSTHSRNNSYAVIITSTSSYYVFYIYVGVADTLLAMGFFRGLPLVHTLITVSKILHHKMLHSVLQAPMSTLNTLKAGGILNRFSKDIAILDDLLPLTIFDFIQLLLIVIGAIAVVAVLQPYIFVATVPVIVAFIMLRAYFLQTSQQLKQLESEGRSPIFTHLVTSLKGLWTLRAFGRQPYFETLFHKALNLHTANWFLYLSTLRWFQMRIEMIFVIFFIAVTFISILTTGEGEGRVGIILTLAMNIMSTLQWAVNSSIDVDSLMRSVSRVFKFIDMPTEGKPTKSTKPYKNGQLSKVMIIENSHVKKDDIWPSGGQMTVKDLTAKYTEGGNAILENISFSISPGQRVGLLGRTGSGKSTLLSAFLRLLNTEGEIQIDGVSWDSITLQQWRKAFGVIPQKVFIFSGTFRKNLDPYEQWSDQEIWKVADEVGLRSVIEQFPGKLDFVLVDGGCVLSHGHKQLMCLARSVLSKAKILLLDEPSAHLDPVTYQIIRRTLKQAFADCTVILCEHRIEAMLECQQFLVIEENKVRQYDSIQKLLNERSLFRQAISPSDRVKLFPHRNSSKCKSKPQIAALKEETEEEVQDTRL

The first assay concerns the target T1, F508del-CFTR (Homo sapiens, UniProt P13569, DEL508-508).
T1 construct: expressed in transfected cells; host or cells: HeLa cells (spTCF-ΔF), selected with Zeocin
Briefly: Iodide (125I) efflux from HeLa cells expressing F508del-CFTR. It is filed as cell-based. The following applies: HeLa, activators Fsk 10 μM + Gst 30 μM, relative to VX809 normalized at 100%, untreated cells 3.6%. Here is the method:
Pharmacology, chemicals and reagents. The CFTR activator forskolin and potentiator genistein (Illek et al., 1995) were purchased from LC Laboratories (PKC Pharmaceuticals, Woburn, Mass.). We purchased DIDS (5-Isothiocyanato-2-[2-(4-isothiocyanato-2-sulfophenyl)ethenyl]benzene-1-sulfonic acid) and VX809 (3-(6-(1-(2,2-difluorobenzo[d][1,3]dioxol-5-yl)cyclopropanecarboxamido)-3-methylpyridin-2-yl)benzoic acid) from Selleckchem (Houston, USA). Stock solutions of F (10 mM), G (30 mM), CFTRinh-172 (10 mM), VX809 (10 mM), were prepared in DMSO. We prepared stock solution of iminosugars, miglustat and IsoLAB ([1,4-dideoxy-2-hydroxymethyl-1,4-imino-L-threitol]) dissolved in water (100 mM) before further dilution. Methods Cell culture. HeLa cells expressing wild-type CFTR (spTCF-wt) or F508del-CFTR (spTCF-ΔF) were cultured in Dulbecco's modified Eagle's medium+GlutaMAX™-I (Invitrogen) supplemented with 8% (v/v) fetal bovine serum (FBS), 1% (v/v) penicillin/streptomycin and were selected using Zeocin (50 μg/mL). Both cell lines were grown in standard culture conditions (37° C., 5% C02). Cells were plated in 35 mm plastic dishes for whole-cell patch-clamp recordings and western blot analysis and in 96-well plates for cytotoxicity assay. For all cell culture, culture media were renewed every 2 days. Western Blot analysis. Cell lysates (10 mM Tris, 1% Nonidet P-40, 0.5% sodium deoxycholate, pH 7.5) were separated 72 h after seeding for HeLa cells by 5% SDS-PAGE (50 μg of protein/well). After saturation, nitrocellulose membrane was incubated overnight at 4° C. in phosphate-buffered saline, 0.1% Tween 20 with 1 μg/ml mouse anti-CFTR monoclonal antibody (clone MAB3480; Chemicon International, Millipore Bioscience Research Reagents, Temecula, Calif.). After washing, goat peroxidase-conjugated anti-mouse IgG (1:10 000; Sigma-Aldrich) was used as secondary antibody. CFTR was visualized by chemiluminescence with ECL Western blotting detection reagent (GE Healthcare, Buckinghamshire, UK). Iodide efflux. CFTR chloride channel activity was assayed by measuring the rate of iodide (^125I) efflux from living cells. All experiments were performed with a MultiPROBE® IIex robotic liquid handling system (Perkin Elmer Life Sciences, Courtaboeuf, France). At the beginning of each experiment, cells were washed twice with efflux buffer containing (in mM) 136.9 NaCl, 5.4 KCl, 0.3 KH2PO4, 0.3 NaH2PO4, 1.3 CaCl2, 0.5 MgCl2, 0.4 MgSO4, 5.6 glucose and 10 HEPES, pH 7.4. Cells were incubated in efflux buffer containing Na^125I (1 μCi Na^125I/ml, NEN, Boston, Mass.) during 1 h at 37° C., then washed with efflux medium to remove extracellular ^125I. The loss of intracellular ^125I was determined by removing the medium with efflux buffer every 1 min for up to 10 min. The first three aliquots were used to establish a stable baseline in efflux buffer alone. A medium containing the activators of CFTR (Fsk 10 μM+Gst 30 μM) and the appropriate drug was used for the remaining aliquots. Residual radioactivity was extracted with 0.1 N NaOH/0.1% SDS, and determined using a Packard Cobra™ II gamma counter (Perkin Elmer life Sciences, Courtaboeuf, France). The fraction of initial intracellular ^125I lost during each time point was collected and time-dependent rates of ^125I efflux calculated from: ln (^125It1/^125It2)/(t1−t2) where ^125It is the intracellular ^125I at time t, and t1 and t2 successive time points. Curves were constructed by plotting rate of 125I versus time. All comparisons were based on maximal values for the time-dependent rates (k=peak rates, min−1) excluding the points used to establish the baseline (kpeak−kbasal, min^−1), and histograms were presented as percentage of activation. Time dependence. Time dependence of the compounds was assayed by measuring the time necessary for an optimal correction of the protein F508del-CFTR. […]
Consider `NC(=O)c1ccc(Cn2cnc3c(Cl)nc(Cl)nc32)cc1` [Compound 93, 4-((2,6-dichloro-9H-purin-9-yl)methyl)benzamide], for which the Emax is 10 to 35%.
The same measure, in the same setting: under `Nc1cncnc1Cl` [Compound 111, 4-chloropyrimidin-5-amine] stands 35 to 60%; under `CCN(CC)c1nc(Cl)nc2c1ncn2-c1ccc(C(N)=O)cc1` [Compound 17, 4-(2-chloro-6-(diethylamino)-9H-purin-9-yl)benzamide], 10 to 35%; under `Nc1c(Cl)ncnc1Nc1ccc(F)cc1` [Compound 110, 6-chloro-N4-(4-fluorophenyl)pyrimidine-4,5-diamine], 10 to 35%.
Still for that read-out and setting: as for `Nc1nc(N)c2ncn(-c3ccc(CO)cc3)c2n1` [Compound 61, (4-(2,6-diamino-9H-purin-9-yl)phenyl)methanol], the figure is 35 to 60%.
In the case of `COC(=O)c1ccc(-n2cnc3c(O)nc(N)nc32)cc1` [Compound 31, methyl 4-(2-amino-6-hydroxy-9H-purin-9-yl)benzoate], the Emax lay within 10 to 35%.
Same read-out and setting: as for `COc1ccc(CNc2nc(Cl)nc3[nH]cnc23)cc1` [Compound 9, 2-chloro-N-(4-methoxybenzyl)-9H-purin-6-amine], the figure is 10 to 35%.
For the molecule `C[C@H](Nc1nc(Cl)nc2c1ncn2-c1ccc(C(N)=O)cc1)C(=O)OC(C)(C)C` [Compound 27, (S)-tert-butyl 2-((9-(4-carbamoylphenyl)-2-chloro-9H-purin-6-yl)amino)propanoate], the maximal effect (Emax) was at least 60%.
Same read-out and setting: as for `CC(=O)Nc1ccc(Nc2ncnc(Cl)c2[N+](=O)[O-])cc1` [Compound 120, N-(4-((6-chloro-5-nitropyrimidin-4-yl)amino)phenyl)acetamide], the figure is 35 to 60%.
Same read-out and setting: under `NC(=O)c1ccc(Sc2ncnc(Cl)c2N)cc1` [Compound 108, 4-((5-amino-6-chloropyrimidin-4-yl)thio)benzamide] stands 10 to 35%; under `Nc1nc(NCCCc2cccc(F)c2)nc2[nH]cnc12` [Compound 128, N2-(3-(3-fluorophenyl)propyl)-9H-purine-2,6-diamine], 35 to 60%; under `NC(=O)c1ccc(-n2cnc3c(N[C@@H](CO)C(=O)O)nc(Cl)nc32)cc1` [Compound 22, (S)-2-((9-(4-carbamoylphenyl)-2-chloro-9H-purin-6-yl)amino)-3-hydroxypropanoic acid], 35 to 60%.
On the same count and under the same terms, under `C[C@H](Nc1nc(Cl)nc2c1ncn2-c1ccccc1)C(=O)O` [Compound 118, (S)-2-((2-chloro-9-phenyl-9H-purin-6-yl)amino)propanoic acid] stands at least 60%.
In the case of `Nc1nc(Cl)c(N)c(Cl)n1` [Compound 48, 4,6-dichloropyrimidine-2,5-diamine], the maximal response (Emax) is at least 60%.
On the same count and under the same terms, as for `NC(=O)c1ccc(-c2nc(N)c3nc[nH]c3n2)cc1` [Compound 130, 4-(6-amino-9H-purin-2-yl)benzamide], the figure is at least 60%.
On the same count and under the same terms, under `NC(=O)c1ccc(-n2cnc3c(Cl)nc(Cl)nc32)cc1` [Compound 79, 4-(2,6-dichloro-9H-purin-9-yl)benzamide] stands 10 to 35%; under `COc1ccc(CNc2nc(Cl)nc3c2ncn3Cc2ccccc2)cc1` [Compound 4, 9-benzyl-2-chloro-N-(4-methoxybenzyl)-9H-purin-6-amine], at least 60%; under `C[C@H](Nc1nc(NCCCc2ccccc2)nc2c1ncn2Cc1ccccc1)C(=O)O` [Compound 6, (S)-2-((9-benzyl-2-((3-phenylpropyl)amino)-9H-purin-6-yl)amino)propanoic acid], 10 to 35%.

The assay is the same for the next values; noted with them: activators Fsk 10 μM + Gst 30 μM, relative to VX809 normalized at 100%, untreated cells 3.6%.
Consider `CSc1ncnc(Nc2ccc(C(N)=O)cc2)c1N` [Compound 129, 4-((5-amino-6-(methylthio)pyrimidin-4-yl)amino)benzamide], for which the Iodide efflux result is given as “+++ (+++≥60%)”.
Still for that read-out and setting: as for `CSc1ncnc(Nc2ccc(C(N)=O)cc2)c1N` [Compound 124, 4-((5-amino-6-(methylthio)pyrimidin-4-yl)amino)benzamide], the entry is “+ (10%≤+<35%)”.
